{"source": "patent US12203124B2", "about": "“Methods for improved rapid antimicrobial susceptibility testing” (priority 2016, dated 2025)", "tested_on": "Bacteria", "assay": "Bacterial growth with or without resazurin during incubation, BacTiter-Glo luminescence", "assay_type": "cell-based", "details": "4 hours at 35° C., versus resazurin added after incubation", "protocol": "FIG. 1 illustrates growth luminescence ratios post-incubation of microogranisms, where resazurin was introduced to one group of microorganisms before the initial incubation period and the other group was introduced to resazurin after the initial incubation period.\nBacteria were inoculated into 96-well microplates comprise cation-adjusted Mueller Hinton broth in the presence and absence of resazurin (alamarBlue®) and incubated at 35° C. for 4 hours. For wells that were not incubated with resazurin, the growth indicator was added immediately after the 4-hour incubation. BacTiter-Glo reagent (Promega, Madison, WI) was added to all wells and luminescence was measured. […] Thus, it can be advantageous to remove growth indicator from test wells during incubation.", "data": [{"smiles": "O=c1ccc2[n+]([O-])c3ccc(O)cc3oc-2c1", "note": "[resazurin, 7-hydroxy-10-oxidophenoxazin-10-ium-3-one]", "values": [{"measurement": "Effect of resazurin present during incubation on viable bacteria (BacTiter-Glo luminescence)", "result": "less luminescent signal was observed"}]}]}
